Entries after “also recorded” stand apart in the source; their conditions may differ.
Columns and labels:
[1] = system: EntF*-mediated E-cadherin downregulation in HCT-8 cells; assay: Antagonist activity analysis by Western blot; type: cell-based
Method: HCT-8, HT-29, and HT-116 cells were grown in DMEM medium supplied with 10% fetal bovine serum (FBS) and 1% penicillin-streptomycin. Caco-2 cells were grown in DMEM medium supplied with 10% FBS, 1% non-essential amino acid NEAA), and 1% penicillin-streptomycin. Cells were cultured at 37 °C and 5% CO2. As cells reached confluency, they were detached using 0.25% Trypsin-EDTA.
For Western blot analyses, HCT-8 (n = 15), HCT-116 (n = 12), Caco-2 (n = 6), and HT-29 (n = 12) cells were seeded in 6-well plates at a density of 1 × 10^6 cells/well. Twenty-four hours after seeding, all cell lines were treated with 1 μM EntF* or a placebo solution. HCT-8 cells were also tested for responsiveness to 1 μM EntF* synthetic alanine-derived analogs. For antagonist activity analysis, HCT-8 cells were treated with 1 μM Nef-M1 or 1 μM EntF*A1 alone or in combination with 500 nM EntF*. After 24 h, cells were detached from the surface and lysed in RIPA buffer (Thermo Scientific). Protein concentration was determined using the modified Lowry protein assay kit (Thermo Scientific), according to the manufacturer’s instructions. […]
The Kolmogorov-Smirnov test was used to assess if data obtained were normally distributed. […] Cohen’s d values were calculated as a measure of the effect size when similar standard deviations for both groups were found, and sample sizes were the same.

[2] = system: luciferase-transfected HCT-8/E11 cells injected into the cecal wall; assay: Orthotopic mouse model of colorectal cancer: weekly bioluminescent imaging; type: in vivo, female athymic nude mice (Swiss nu/nu)
Method: All in vivo experiments were performed according to the Ethical Committee principles of laboratory animal welfare, approved by our institute (Ghent University, Faculty of Medicine and Health Sciences, approval number ECD 17-90). Mice were maintained in a sterile environment under controlled conditions (light–dark cycle with light from 7:00 h to 17:00 h, temperature 21–25 °C and humidity 45–65%). Before the experiment, mice were allowed to acclimate to the abovementioned conditions for a minimum of 7 days.
(§1) Six-week-old female athymic nude mice (Swiss nu/nu) were anesthetized, and a minimally invasive midline laparotomy was performed to localize the cecum. The cecum was then gently pulled out, and luciferase-transfected HCT-8/E11 cells (1 × 10^6 cells) in 20 μL serum-free DMEM medium with Matrigel (1:1) were injected into the cecal wall. Before implantation, cells were treated with EntF* (10^2 nM), Phr0662 (10^2 nM), vehicle (PBS), or TGFα positive control (0.1 μg mL^−1) solutions for 5 days. The cecum was then carefully placed back into the abdominal cavity and the surgical incision was closed with two layers of sutures with PDS 6-0. […] Once a week, mice were examined for tumor growth and metastases using bioluminescent imaging with the IVIS Lumina II (Perkin Elmer, Belgium) after i.p. injection with 200 μL luciferin (150 mg kg^−1). After 6 weeks, mice were euthanized using cervical dislocation, and the liver, diaphragm, lungs, cecum, duodenum, and peritoneum were macroscopically examined for the presence of tumor nodules. Liver and lung tissues were then fixed in formalin for 24 h and stored in 70% ethanol for maximum 3 days before embedding in paraffin. Next, a hematoxylin and eosin (H&E) staining was performed on 8 μm sections, and 3 sections per mouse were visualized using microscopy. Slides from tumor-bearing mice were analyzed by two blinded, independent investigators using the scoring system described in Additional file 5: Table S3. In case of differences, slides were scored by a third blinded, independent investigator for consensus.
The Kolmogorov-Smirnov test was used to assess if data obtained were normally distributed. For sample size n < 10, non-parametric tests (Mann-Whitney U test) were performed directly. Slope comparison was based on linear regression analysis. Bootstrapped medians and Hedges G-values were used to calculate the effect size when sample sizes were different between the groups.

[3] = system: luciferase-transfected HCT-8/E11 cells injected into the cecal wall; assay: Orthotopic mouse model: macroscopic number of tumor nodules on the cecum; type: in vivo, female athymic nude mice (Swiss nu/nu)
Method: as §1
The Kolmogorov-Smirnov test was used to assess if data obtained were normally distributed. For sample size n < 10, non-parametric tests (Mann-Whitney U test) were performed directly. Slope comparison was based on linear regression analysis. Bootstrapped medians and Hedges G-values were used to calculate the effect size when sample sizes were different between the groups. Cohen’s d values were calculated as a measure of the effect size when similar standard deviations for both groups were found, and sample sizes were the same.

[4] = after a 6-week treatment, compared to the placebo group

Q: How did the “E-cadherin level, EntF* only” value ([1]; HCT-8 cells, EntF* only, 24 h, relative to control, n = 15) turn out when `CC(C)C[C@@H]1NC(=O)[C@H](CO)NC(=O)[C@H](Cc2ccccc2)NC(=O)[C@H](C(C)C)NC(=O)[C@@H](NC(=O)[C@H](CCC(=O)O)NC(=O)[C@@H](NC(=O)[C@H](CC(C)C)NC(=O)[C@H](CC(N)=O)NC(=O)[C@@H](N)CO)C(C)C)CSSC[C@@H](C(=O)N[C@@H](CC(N)=O)C(=O)O)NC(=O)[C@H](CCCCN)NC(=O)[C@H](CCCCN)NC(=O)[C@H](Cc2ccccc2)NC1=O` (single isomer, unassigned) [EntF*] was run?
A: The value was 62%.

Q: What about the “Relative E-cadherin level (% of control), mean” value ([1]; mean of the replicates) of the same compound?
A: The value was 62.0.

Q: And the “effect size class by Hedges' G, bioluminescence” value [2, 4]?
A: The value was “medium to large effect”.

Q: And the “effect size: increase in bioluminescence compared to the placebo” value ([2]; after a 6-week treatment, bootstrapped median)?
A: Its value is 79%.

Q: What about the “luciferase activity / tumor growth compared to the vehicle” value ([2]; daily i.p. over 6 weeks, linear regression slope comparison) of the same compound?
A: Its value is “statistically significant increase; also recorded: significant increase in tumor growth”.

Q: And the “effect size class by Hedges' G, number of nodules in the cecum” value [3, 4]?
A: Its value is “medium”.

Q: What about the “Mean amount of nodules” value ([3]; macroscopic evaluation caecum, mean of the group) of the same compound?
A: The value was 11.5.
